The values that follow come from paper PMC8102477 (2021).

Test [1] has as its system 22AG (DNA, G4) AGGGTTAGGGTTAGGGTTAGGG
The experiment in a line: fluorescence titration (ThT titrated with 22AG). Particulars: 30 mM Tris-HCl pH 7.4, 25 °C, 1 bar, 2.14 µM ThT.

Test [2] relates to labelled 22AG (DNA, G4) AGGGTTAGGGTTAGGGTTAGGG
Nature of the test: FRET efficiency (FAM/TAMRA). The settings on record: no added Na+ or K+; 30 mM Tris-HCl pH 7.4, 25 °C, 1 bar; 2 µM DNA, 20 µM ThT; Erel rises on binding.

As for `Cc1ccc2c(c1)sc(-c1ccc(N(C)C)cc1)[n+]2C`, the Kb is on record as 3.51 ± 0.42 × 10^5 M^-1 in test [1] (60 mM KCl, equivalent independent sites fit); 0.42 ± 0.04 × 10^5 M^-1 in test [1] (60 mM NaCl, equivalent independent sites fit); 0.87 ± 0.06 × 10^5 M^-1 in test [1] (no added Na+ or K+, 3 equivalent sites, free DNA mainly unfolded). For the same molecule, the binding result in test [2] is “yes”.
